Laboratory results published in ChEMBL document CHEMBL1153791, “Acylphloroglucinol, biyouyanagiol, biyouyanagin B, and related spiro-lactones from Hypericum chinense” (J Nat Prod, 2009).
Converted amounts (≈) assume the structure as drawn.

Experiments:
Type in all cases: functional, cell-based
KB = assay: Cytotoxicity against human KB cells after 48 hrs by MTT assay
[1] = Cytotoxicity against human multidrug resistant KB-C2 cells after 48 hrs by MTT assay; conditions: KB-C2, 48 h
MCF7 = assay: Cytotoxicity against human MCF7 cells after 48 hrs by MTT assay; conditions: MCF7, 48 h
COLO 205 = assay: Cytotoxicity against human COLO205 cells after 48 hrs by MTT assay; conditions: COLO 205, 48 h
K562 [2] = assay: Cytotoxicity against human doxorubicin-resistant K562 cells after 48 hrs by MTT assay; conditions: K562, 48 h
K562 [3] = assay: Cytotoxicity against human K562 cells after 48 hrs by MTT assay; conditions: K562, 48 h
[4] = Cytotoxicity against human multidrug resistant KB-C2 cells after 48 hrs by MTT assay in the presence of colchicine; conditions: KB-C2, 48 h

| SMILES | IC50 (KB) [µg/mL] | IC50 [1] [µg/mL] | IC50 (MCF7) [µg/mL] | IC50 (COLO 205) [µg/mL] | IC50 (K562 [2]) [µg/mL] | IC50 (K562 [3]) [µg/mL] | IC50 [4] [µg/mL] |
| --- | --- | --- | --- | --- | --- | --- | --- |
| C=C[C@@]1(C)COC(=O)C1(O)C(=O)/C=C(\O)c1ccccc1 (some centres undefined) | > 100 | > 100 | 62.1 (≈ 215 µM) | 79 (≈ 274 µM) | 33.7 (≈ 117 µM) | > 100 | 53.1 |
| COc1cc(/C=C/C(=O)OC[C@H](Cc2ccc(O)c(OC)c2)[C@H](COC(=O)/C=C/c2ccc(O)c(OC)c2)Cc2ccc(O)c(OC)c2)ccc1O | 14.1 (≈ 19.7 µM) | 9.4 (≈ 13.2 µM) | 5.9 (≈ 8.25 µM) | 5.2 (≈ 7.28 µM) | 19.9 (≈ 27.8 µM) | 17.3 (≈ 24.2 µM) | 4.5 |
| C=C[C@@]1(C)COC(=O)[C@]12O[C@]1(c3ccccc3)[C@H](C2=O)[C@H]2[C@H]([C@H](C)CCC=C(C)C)CC=C(C)[C@H]21 [BIYOUYANAGIN A] | 38.8 (≈ 81.7 µM) | 36.2 (≈ 76.3 µM) | 27.1 (≈ 57.1 µM) | 26.9 (≈ 56.7 µM) | 16.6 (≈ 35 µM) | 31.1 (≈ 65.5 µM) | 16.8 |
| COC(=O)[C@@]1(O)C(=O)[C@](C)(CC=C(C)C)C(=O)C12C[C@H]1[C@@H](CC[C@@]1(C)O)[C@@](C)(O)C2 (some centres undefined) [BIYOUYANAGIOL] | > 100 | > 100 | > 100 | > 100 | > 100 | > 100 | 47.8 |
| COc1cccc2c1C(=O)c1c(O)c3c(c(O)c1C2=O)C[C@@](O)(C(C)=O)C[C@@H]3O[C@H]1C[C@H](N)[C@H](O)[C@H](C)O1 [DAUNORUBICIN] | 0.22 (≈ 0.417 µM) | > 100 | 0.33 (≈ 0.626 µM) | 0.5 (≈ 0.948 µM) | 15.2 (≈ 28.8 µM) | 0.45 (≈ 0.853 µM) | – |
| OC[C@H]1[C@@H](Cc2ccc3c(c2)OCO3)CO[C@@H]1c1ccc2c(c1)OCO2 [DIHYDROSESAMIN] | > 100 | > 100 | 62.1 (≈ 174 µM) | 79 (≈ 222 µM) | 33.7 (≈ 94.6 µM) | > 100 | 53.1 |
| COc1cc(/C=C/C(=O)OC[C@H](Cc2ccc(O)c(OC)c2)[C@H](CO)Cc2ccc(O)c(OC)c2)ccc1O [HANULTARIN] | 33.7 (≈ 62.6 µM) | 20.7 (≈ 38.4 µM) | 18.9 (≈ 35.1 µM) | 16.8 (≈ 31.2 µM) | 33.1 (≈ 61.5 µM) | 35.2 (≈ 65.4 µM) | 20.9 |
| C=C[C@@]1(C)COC(=O)[C@]12OC([C@H](C)CC)=CC2=O [HYPERLACTONE A] | > 100 | > 100 | > 100 | > 100 | 47.1 (≈ 188 µM) | > 100 | 70.8 |
| C=C[C@@]1(C)COC(=O)[C@]12OC(c1ccccc1)=CC2=O [HYPERLACTONE C] | > 100 | > 100 | 77.7 (≈ 287 µM) | 58.5 (≈ 216 µM) | 32.8 (≈ 121 µM) | > 100 | 51.8 |
| C=C[C@@]1(C)COC(=O)C1C(=O)/C=C(\O)c1ccccc1 (some centres undefined) [HYPERLACTONE D] | 61 (≈ 224 µM) | 22.3 (≈ 81.9 µM) | 52.9 (≈ 194 µM) | 37.5 (≈ 138 µM) | 20 (≈ 73.4 µM) | 47.8 (≈ 176 µM) | 24.6 |
